Measured values: US11746094B2, “Small molecule photosensitizers for photodynamic therapy” (The University Court of the University of Edinburgh, priority 2019, dated 2023)

Columns and labels:
[1] = Singlet oxygen generation (DPBF absorption, 520 nm laser); assay type: physicochemical; details: for Singlet oxygen quantum yield (%): DPBF 40 μM in EtOH, 520 nm laser 0.3 mW
U87 glioblastoma cells = test: Phototoxicity assay in U87 glioblastoma cells, Annexin V-Pacific Blue staining (fluorescence microscopy, flow cytometry); assay type: cell-based
Experimental: Compound was administered at 100 μM and illuminated under 520 nm light. Annexin V-Pacific Blue was used as a stain for dead cells. Red fluorescence was used to confirm uptake of PS-SCOTfluor-13 into cells.
Phototoxicity assays of PS-SCOTfluor-13 and 2-NBDG in U87 glioblastoma cells were determined. Compounds administered at 100 μM and illuminated under 520 nm light. Annexin V-Pacific Blue was used as a stain for dead cells. Red fluorescence (for PS-SCOTfluor-13) and green fluorescence (for 2-NBDG) was used to confirm uptake of the compounds into cells.

[2] = tested on: U87-mCrimson glioblastoma cells; test: U87-mCrimson glioblastoma transplant in zebrafish embryos, 520 nm irradiation; assay type: in vivo; details: compound injected, then 520 nm light
Experimental: Briefly, U87-mCrimson glioblastoma cells were injected into the yolk sac of zebrafish embryos. Cells were effectively transplanted as shown by fluorescence microscopy images. Zebrafish were then irradiated with 520 nm light alone or injected with PS-SCOTfluor-13 and then irradiated with 520 nm light.

[3] = 100 μM, illuminated under 520 nm light

| SMILES | Singlet oxygen quantum yield (%) [1] | Cell death as detected by Annexin V staining (fluorescence microscopy) (U87 glioblastoma cells; [3]) | also measured |
| --- | --- | --- | --- |
| CCN(CC)c1ccc([N+](=O)[O-])c2n[se]nc12 [PS-SCOTfluor-5, N,N-diethyl-7-nitrobenzo[c][1,2,5]selenadiazol-4-amine] | 3% |  |  |
| O=[N+]([O-])c1ccc(N[C@@H]2[C@@H](O)[C@H](O)[C@@H](CO)O[C@H]2O)c2nsnc12 [PS-SCOTfluor-13, (2R,3R,4R,5S,6R)-6-(hydroxymethyl)-3-((7-nitrobenzo[c][1,2,5]thiadiazol-4-yl)amino)tetrahydro-2H-pyran-2,4,5-triol] | 24% | kills U87 glioblastoma cells only after irradiation with light | Activity as photosensitizer (summary of Table 1) [1]: high activity as photosensitizer; Cell death as detected by Annexin V staining (flow cytometry) (U87 glioblastoma cells; [3]): kills U87 glioblastoma cells only after irradiation with light but not without light; Effect of excess unlabelled glucose on uptake and cell death (U87 glioblastoma cells; competition with excess unlabelled glucose, Annexin V staining): reduces the uptake of PS-SCOTfluor-13 and subsequently cell death; Glioblastoma transplant (fluorescence of mCrimson reporter) [2]: reduction of the glioblastoma transplant |
| O=[N+]([O-])c1ccc(N[C@H]2C(O)O[C@H](CO)[C@@H](O)[C@@H]2O)c2nonc12 (stereo partly drawn) [2-NBDG, reference compound] | <1% | does not kill the cells after illumination | Uptake into U87 glioblastoma cells (fluorescence) (U87 glioblastoma cells; 100 μM): uptaken by U87 glioblastoma cells |
| CCN(CC)c1cc(I)c([N+](=O)[O-])c2n[se]nc12 [PS-SCOTfluor-6, N,N-diethyl-6-iodo-7-nitrobenzo[c][1,2,5]selenadiazol-4-amine] | 5% |  |  |
| NC(CNc1ccc([N+](=O)[O-])c2n[se]nc12)C(=O)O (stereo not drawn) [PS-SCOTfluor-19, 2-amino-3-((7-nitrobenzo[c][1,2,5]selenadiazol-4-yl)amino)propanoic acid] | 10% |  |  |
